Common to all, as to type: cell-based
The test system of experiment [1] is human prostate cancer cells (PC3). Description: cytotoxicity by SRB assay. Conditions: 0.01 μM to 100 μM, 72 h. An excerpt:
(§1) The anticancer activity of the described synthesized compounds against highly aggressive androgen-independent metastatic human prostate cancer cells (PC3) and osteosarcoma (MG-63) cells. The human prostate cancer cells (PC3) and human osteosarcoma cells (MG-63) were obtained from Nawah Scientific Inc. (Mokatam, Cairo, Egypt) and cultured in DMEM (Dulbecco's modified eagle's medium), Gibco, USA, supplemented with fetal bovine serum (FBS) at a concentration of 10% and 100 U/mL of penicillin and streptomycin (PS). The Cells were incubated at 37° C. in a humidified environment that contained 5% CO2.
(§2) Cells were seeded in 96-well plates as aliquots of 100 μL cell suspension and incubated in a complete media for 24 h, afterward, cells were treated with 3-(3-bromophenyl)-5-((2-isopropyl-5-methylphenoxy)methyl)-1,2,4-oxadiazole at diverse concentrations ranging from 0.01 μM to 100 μM for 72 h. Then, cells were fixed at 4° C. for one hour with 150 μL of 10% trichloroacetic acid (TCA). […] Then, 150 μL of Tris pH 10.5 (10 mM) was added, and the absorbance was measured at 540 nm using a BMG LABTECH®-FLUOstar Omega microplate reader (Ortenberg, Germany). Half maximal inhibitory concentrations (IC50) values were calculated for each experiment using GraphPad Prism 6 software. […]
(§3) The inhibition was calculated using the following equation: Inhibition %=100−Average Viability
On the technique in general: In SRB staining, fixed cells bind dye roughly in proportion to their protein.

Experiment [2] relates to human osteosarcoma cells (MG-63). Description: cytotoxicity by SRB assay. The note with it: MG-63 cells, 0.01 μM to 100 μM, 72 h.
Excerpt: as §1, §2, §3

Another experiment has as its system Escherichia coli. Description: agar plate disc-diffusion, inhibition zone. Here is the method:
(§4) The agar plate disc-diffusion method was applied. […] The discs were then placed onto the surface of agar plates (nutrient agar for bacteria and Sabouraud's dextrose agar for fungi) seeded with the test organism. Each plate contained 15 mL of the agar medium, previously seeded with 0.2 mL of the broth culture of each organism pregrown for 18 hours. The plates were incubated at 37° C. for 48 h, and 72 h for fungi. The inhibition zones were measured in mm. Discs impregnated with DMSO were used as a control, and its inhibition zone was subtracted from the tested compound actual inhibition zone.
In general terms: Agar diffusion results depend on both activity and mobility in agar.

For another experiment, the system named is Pseudomonas aeruginosa. Description: agar plate disc-diffusion, inhibition zone. Here is the method: as §4
The subject of the next experiment is Staphylococcus aureus. Description: agar plate disc-diffusion, inhibition zone. Here is the method:
as §4

Experiment [3] has as its system Chrysosporium keratinophilum. The experiment can be described thus: agar plate disc-diffusion, inhibition zone. Here is the method:
as §4

In the next experiment the test system is Aspergillus flavus. Description: agar plate disc-diffusion, inhibition zone. Here is the method: as §4
Another experiment deals with Bacillus cereus. The experiment can be described thus: agar plate disc-diffusion, inhibition zone. Here is the method: as §4
For a further experiment, the system named is different microbes. The experiment can be described thus: antimicrobial activity, agar plate disc-diffusion (overall statement). Conditions: against different microbes. Here is the method: The agar plate disc-diffusion method was applied. Sterilized filter papers (6 mm in diameter) were wetted with 10 μL of a solution of 3-(3-bromophenyl)-5-((2-isopropyl-5-methylphenoxy)methyl)-1,2,4-oxadiazole (3) to be tested, containing 10 mg/mL in DMSO, and the discs were allowed to air dry. The discs were then placed onto the surface of agar plates (nutrient agar for bacteria and Sabouraud's dextrose agar for fungi) seeded with the test organism. Each plate contained 15 mL of the agar medium, previously seeded with 0.2 mL of the broth culture of each organism pregrown for 18 hours. The plates were incubated at 37° C. for 48 h, and 72 h for fungi. The inhibition zones were measured in mm. Discs impregnated with DMSO were used as a control, and its inhibition zone was subtracted from the tested compound actual inhibition zone.

Setting [4] is: A = concentration of comp. = 10,000 μL.
Setting [5] is: C = concentration of comp. = 50,000 μL.

On to `Cc1ccc(C(C)C)c(OCc2nc(-c3cccc(Br)c3)no2)c1` [3-(3-bromophenyl)-5-((2-isopropyl-5-methylphenoxy)methyl)-1,2,4-oxadiazole], for which the antiproliferative activities result in experiment [1] and in experiment [2] was “excellent antiproliferative activities” throughout.
For the molecule `O=C(O)c1cn(C2CC2)c2cc(N3CCNCC3)c(F)cc2c1=O` [Cip., ciprofloxacin, reference compound], the inhibition zone with Escherichia coli (setting [4]) is listed as 30 mm; in the experiment with Escherichia coli (B =), 39 mm; with Escherichia coli (setting [5]), 60 mm; in the experiment with Pseudomonas aeruginosa (setting [4]) it was 29 mm; in the experiment on Pseudomonas aeruginosa (B =) it was 30 mm; in the experiment on Pseudomonas aeruginosa (setting [5]), 53 mm. Also, the inhibition zone with Staphylococcus aureus (setting [4]) is recorded as 43 mm; in the experiment with Staphylococcus aureus (B = concentration of comp.), 44 mm; in the experiment on Staphylococcus aureus (setting [5]), 53 mm; in [3] (setting [4]), 29 mm; in experiment [3] (B = concentration of comp.) it was 30 mm; in experiment [3] (setting [5]), 53 mm. For the same molecule, the inhibition zone stood at 29 mm in the experiment with Aspergillus flavus (setting [4]); 30 mm in the experiment on Aspergillus flavus (B =); 42 mm in the experiment with Aspergillus flavus (setting [5]); 29 mm in the experiment with Bacillus cereus (setting [4]); 30 mm in the experiment on Bacillus cereus (B =); 42 mm with Bacillus cereus (setting [5]).
For `Cc1ccc(C(C)C)c(OCc2nc(-c3cccc(Br)c3)no2)c1` [Compound 3, 3-(3-bromophenyl)-5-((2-isopropyl-5-methylphenoxy)methyl)-1,2,4-oxadiazole], in the experiment with different microbes, the antimicrobial activities result is recorded as “excellent antimicrobial activities”. In addition, the inhibition zone in the experiment on Escherichia coli (setting [4]) is 28 mm; in the experiment with Escherichia coli (B =), 36 mm; in the experiment with Escherichia coli (setting [5]) it was 52 mm; with Pseudomonas aeruginosa (setting [4]), 26 mm; in the experiment with Pseudomonas aeruginosa (B =) it was 28 mm; in the experiment with Pseudomonas aeruginosa (setting [5]), 40 mm. Besides, the inhibition zone stood at 12 mm with Staphylococcus aureus (setting [4]); 16 mm in the experiment with Staphylococcus aureus (B = concentration of comp.); 19 mm with Staphylococcus aureus (setting [5]); 25 mm in experiment [3] (setting [4]); 28 mm in [3] (B = concentration of comp.); 47 mm in experiment [3] (setting [5]). For the same molecule, the inhibition zone is on record as 20 mm in the experiment on Aspergillus flavus (setting [4]); 24 mm in the experiment with Aspergillus flavus (B =); 32 mm with Aspergillus flavus (setting [5]); 27 mm in the experiment with Bacillus cereus (setting [4]); 29 mm in the experiment on Bacillus cereus (B =); 40 mm with Bacillus cereus (setting [5]).

These data come from patent publication US12172972B1, “3-(3-bromophenyl)-5-((2-isopropyl-5-methylphenoxy)methyl)-1,2,4-oxadiazole as an anti-cancer and antimicrobial compound” (KING FAISAL UNIVERSITY, priority 2023, dated 2024).
